Source: patent publication US12435091B2, “RNA-binding protein multimerization inhibitors and methods of use thereof” (THE UAB RESEARCH FOUNDATION, priority 2020, dated 2025)
Read-outs that look alike come from different tables or passages of the source. Values belong to the compound of their own block, whether it stands above or below them.

Columns and labels:
HuR = target: T1, HuR (Homo sapiens, UniProt Q15717); assay: cell-based split firefly luciferase-HuR dimerization assay; conditions: for IC50: read-out: HuR IC50
T1 construct: expressed in transfected cells; host or cells: U251 glioma cells, doxycycline-inducible constructs
T1 sequence (Q15717 whole entry): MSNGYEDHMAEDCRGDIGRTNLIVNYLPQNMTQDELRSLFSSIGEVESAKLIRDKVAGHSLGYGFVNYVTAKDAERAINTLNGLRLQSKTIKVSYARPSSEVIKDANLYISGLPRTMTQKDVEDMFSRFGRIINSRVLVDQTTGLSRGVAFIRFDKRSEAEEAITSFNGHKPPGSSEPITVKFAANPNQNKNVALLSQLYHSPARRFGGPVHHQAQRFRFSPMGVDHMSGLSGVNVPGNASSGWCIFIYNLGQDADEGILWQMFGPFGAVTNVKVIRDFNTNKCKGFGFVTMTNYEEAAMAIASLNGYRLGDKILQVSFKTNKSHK
Description: (§1) The oncogenic activity of HuR is driven by subcellular localization into the cytoplasm and formation of multimers of HuR. To develop cell based assays to characterize the ability of small molecules to disrupt this process, a split luciferase assay detecting the formation of HuR dimers was developed. The assays were performed in 96 well plates with clear bottom (Corning Inc., Corning, NY). Cells with designed constructs (30,000-50,000 in number) were plated per well; the constructs were induced by doxycycline (0.75 ug/ml) for 48 hours. The evaluated compounds at different concentrations and the corresponding vehicle as the control were administered for 6 hours. The luminescence signals were detected by using InfinitiM200 plate reader (TECAN, Morrisville, NC) in the presence of the luciferase substrate luciferin (D-Luciferin, potassium salt), which was purchased from GoldBio (St Louis, MO). A multichannel pipette (XL 3000I™, Denville Scientific, South Plainfield, NJ) was used in all procedures to ensure the experiment quality.
The assay used the coding sequence of HuR in frame with the N-terminus of firefly luciferase or the C-terminus as depicted in FIG. 2A. When HuR forms dimers in this case, luciferase is generated and with luciferin present, luminescence is generated.
(§2) Squares represent luminescence signal from reporter representing HuR dimers (U251 cells co-expressing HuR-Nluc and HuR-Cluc constructs); circles represent luminescence signal from control reporter (U251 cells expressing Fluc construct). Results are shown as mean+SD.

[1] = test system: U251 cells expressing Fluc construct; assay: control Fluc (full length luciferase) reporter assay in U251 cells; assay type: cell-based; conditions: Homo sapiens, U-251, 6 h, read-out: Fluc Imax % Inh; for inhibition at 50 µM: Concn 50 uM; for inhibition at 25 µM: Concn 25 uM
Description: as §1, with “quality. […]” for “quality.”
as §2

[2] = split luciferase HuR dimerization assay, compounds administered for 6 hours
[3] = U251 cells co-expressing HuR-Nluc and HuR-Cluc, 6 hours of treatment

IC50 (HuR; [2]): > 30 µM
Compound: CS(=O)(=O)c1ccc(-c2cnc3ccc(NC4CCOCC4)nn23)cc1 [Compound 6]

IC50 (HuR; [2]): > 100 µM
Compound: OCc1ccccc1-c1cnc2ccc(NC3CCOCC3)nn12 [Compound 7]

IC50 (HuR; [2]): > 30 µM
Compound: c1cncc(-c2cnc3ccc(NC4CCOCC4)nn23)c1 [Compound 8]

IC50 (HuR; [2]): > 30 µM
Compound: CC(=O)Nc1cccc(-c2cnc3ccc(NC4CCOCC4)nn23)c1 [Compound 9]

IC50 (HuR; [2]): > 30 µM
Compound: c1cc2cc(-c3cnc4ccc(NC5CCOCC5)nn34)ccc2o1 [Compound 10]

IC50 (HuR; [2]): 18 µM
Compound: c1ccc(-c2cnc3ccc(NC4CCOCC4)nn23)cc1 [Compound 11]

IC50 (HuR; [2]): 12 µM
Compound: c1cnc2cc(-c3cnc4ccc(NC5CCOCC5)nn34)ccc2n1 [Compound 12]

IC50 (HuR; [2]): 23 µM
Compound: CN(c1ccc2ncc(-c3ccccc3)n2n1)C1CCOCC1 [Compound 14, N-Methyl-3-phenyl-N-(tetrahydro-2H-pyran-4-yl)imidazo[1,2-b]pyridazin-6-amine]

IC50 (HuR; [2]): > 30 µM
Compound: COc1ccc(-c2cnc3ccc(NC4CCCCC4)nn23)cc1 [Compound 15]

IC50 (HuR; [2]): > 50 µM
Compound: CCCN(C)c1ccc2ncc(-c3cccc(N(C)C)c3)n2n1 [Compound 16, 3-(3-(Dimethylamino)phenyl)-N-methyl-N-propylimidazo[1,2-b]pyridazin-6-amine]

IC50 (HuR; [2]): > 50 µM
Compound: CCCN(C)c1ccc2ncc(-c3cccc4cnccc34)n2n1 [Compound 17, 3-(Isoquinolin-5-yl)-N-methyl-N-propylimidazo[1,2-b]pyridazin-6-amine]

HuR N/C Imax % Inh (HuR; Concn 50 uM): 89%
IC50 (HuR; [3]): 3 µM
IC50 (HuR; [2]): 3 µM
Compound: CN(c1ccc2ncc(-c3ccc4nccn4c3)n2n1)C1CCOCC1 [Compound 18, 3-(Imidazo[1,2-a]pyridin-6-yl)-N-methyl-N-(tetrahydro-2H-pyran-4-yl)imidazo[1,2-b]pyridazin-6-amine]
inhibition at 50 µM [1]: 6%

HuR N/C Imax % Inh (HuR; Concn 50 uM): 71%
IC50 (HuR; [3]): 3.4 µM
IC50 (HuR; [2]): 3.4 µM
Compound: CN(c1ccc2ncc(-c3ccc4cnn(C)c4c3)n2n1)C1CCOCC1 [Compound 21, N-Methyl-3-(1-methyl-1H-indazol-6-yl)-N-(tetrahydro-2H-pyran-4-yl)imidazo[1,2-b]pyridazin-6-amine]
inhibition at 50 µM [1]: 28%

HuR N/C Imax % Inh (HuR; Concn 50 uM): 93%
IC50 (HuR; [3]): 9 µM
IC50 (HuR; [2]): 9 µM
Compound: CN(c1ccc2ncc(-c3ccc4cn[nH]c4c3)n2n1)C1CCCCC1 [Compound 22, N-Cyclohexyl-3-(1H-indazol-6-yl)-N-methylimidazo[1,2-b]pyridazin-6-amine]
inhibition at 50 µM [1]: 32%

IC50 (HuR; [2]): > 50 µM
Compound: CN1CCC(N(C)c2ccc3ncc(-c4ccc5cn[nH]c5c4)n3n2)CC1 [Compound 25, 3-(1H-Indazol-6-yl)-N-methyl-N-(1-methylpiperidin-4-yl)imidazo[1,2-b]pyridazin-6-amine]

IC50 (HuR; [2]): > 50 µM
Compound: c1cc2cn[nH]c2cc1-c1cnc2ccc(N(CC3CC3)C3CCOCC3)nn12 [Compound 28, N-(Cyclopropylmethyl)-3-(1H-indazol-6-yl)-N-(tetrahydro-2H-pyran-4-yl)imidazo[1,2-b]pyridazin-6-amine]

IC50 (HuR; [2]): > 50 µM
Compound: Cc1n[nH]c2cc(-c3cnc4ccc(NC5CCOCC5)nn34)ccc12 [Compound 31, 3-(3-Methyl-1H-indazol-6-yl)-N-(tetrahydro-2H-pyran-4-yl)imidazo[1,2-b]pyridazin-6-amine]

IC50 (HuR; [2]): 25 µM
Compound: CCCN(C)c1ccc2ncc(-c3ccc4c(C)n[nH]c4c3)n2n1 [Compound 33, N-Methyl-3-(3-methyl-1H-indazol-6-yl)-N-propylimidazo[1,2-b]pyridazin-6-amine]

IC50 (HuR; [2]): 40 µM
Compound: Cc1nn(C)c2cc(-c3cnc4ccc(NC5CCOCC5)nn34)ccc12 [Compound 34, 3-(1,3-Dimethyl-1H-indazol-6-yl)-N-(tetrahydro-2H-pyran-4-yl)imidazo[1,2-b]pyridazin-6-amine]

IC50 (HuR; [2]): > 50 µM
Compound: Cc1nn(C)c2cc(-c3cnc4ccc(N(C)C5CCOCC5)nn34)ccc12 [Compound 35, 3-(1,3-Dimethyl-1H-indazol-6-yl)-N-methyl-N-(tetrahydro-2H-pyran-4-yl)imidazo[1,2-b]pyridazin-6-amine]

IC50 (HuR; [2]): > 50 µM
Compound: CCCN(C)c1ccc2ncc(-c3ccc4c(C)nn(C)c4c3)n2n1 [Compound 36, 3-(1,3-Dimethyl-1H-indazol-6-yl)-N-methyl-N-propylimidazo[1,2-b]pyridazin-6-amine]

HuR N/C Imax % Inh (HuR; Concn 50 uM): 87%
IC50 (HuR; [3]): 8 µM
IC50 (HuR; [2]): 8 µM
Compound: CN(c1ccc2ncc(-c3ccc4[nH]cnc4c3)n2n1)C1CCOCC1 [Compound 37, 3-(1H-Benzo[d]imidazol-5-yl)-N-methyl-N-(tetrahydro-2H-pyran-4-yl)imidazo[1,2-b]pyridazin-6-amine]
inhibition at 50 µM [1]: 14%

HuR N/C Imax % Inh (HuR; Concn 25 uM): 94%
IC50 (HuR; [2]): 0.3 µM
Compound: c1cc2[nH]ncc2cc1-c1cnc2ccc(NC3CCOCC3)nn12 [Compound 39, 3-(1H-Indazol-5-yl)-N-(tetrahydro-2H-pyran-4-yl)imidazo[1,2-b]pyridazin-6-amine]
inhibition at 25 µM [1]: 28%

HuR N/C Imax % Inh (HuR; Concn 25 uM): 90%
IC50 (HuR; [2]): 0.3 µM
Compound: CN(c1ccc2ncc(-c3ccc4[nH]ncc4c3)n2n1)C1CCOCC1 [Compound 40, 3-(1H-Indazol-5-yl)-N-methyl-N-(tetrahydro-2H-pyran-4-yl)imidazo[1,2-b]pyridazin-6-amine]
inhibition at 25 µM [1]: 23%

HuR IC50 (HuR; [2]): Insoluble
Compound: Cc1nn(C)c2ccc(-c3cnc4ccc(NC5CCOCC5)nn34)cc12 [Compound 43, 3-(1,3-Dimethyl-1H-indazol-5-yl)-N-(tetrahydro-2H-pyran-4-yl)imidazo[1,2-b]pyridazin-6-amine]

HuR IC50 (HuR; [2]): Insoluble
Compound: Cc1nn(C)c2ccc(-c3cnc4ccc(N(C)C5CCOCC5)nn34)cc12 [Compound 44, 3-(1,3-Dimethyl-1H-indazol-5-yl)-N-methyl-N-(tetrahydro-2H-pyran-4-yl)imidazo[1,2-b]pyridazin-6-amine]

HuR N/C Imax % Inh (HuR; Concn 50 uM): 93%
IC50 (HuR; [3]): 3 µM
IC50 (HuR; [2]): 3 µM
Compound: c1ccc(CNc2ccc3ncc(-c4ccc5[nH]ncc5c4)n3n2)cc1 [Compound 47, N-Benzyl-3-(1H-indazol-5-yl)imidazo[1,2-b]pyridazin-6-amine]
inhibition at 50 µM [1]: 24%

HuR N/C Imax % Inh (HuR; Concn 100 uM): 89%
IC50 (HuR; [3]): 0.6 µM
IC50 (HuR; [2]): 0.6 µM
Compound: CCCN(C)c1ccc2ncc(-c3ccc4[nH]ncc4c3)n2n1 [Compound 49, 3-(1H-Indazol-5-yl)-N-methyl-N-propylimidazo[1,2-b]pyridazin-6-amine]
inhibition at 100 µM ([1]; Concn 100 uM): 12%

HuR N/C Imax % Inh (HuR; Concn 50 uM): 87%
IC50 (HuR; [3]): 7 µM
IC50 (HuR; [2]): 7 µM
Compound: c1cc2[nH]ncc2cc1-c1cnc2ccc(N3CCOCC3)nn12 [Compound 51, 4-(3-(1H-Indazol-5-yl)imidazo[1,2-b]pyridazin-6-yl)morpholine]
inhibition at 50 µM [1]: 27%

HuR N/C Imax % Inh (HuR; Concn 50 uM): 90%
IC50 (HuR; [3]): 8 µM
IC50 (HuR; [2]): 8 µM
Compound: CN1CCN(c2ccc3ncc(-c4ccc5[nH]ncc5c4)n3n2)CC1 [Compound 52, 3-(1H-Indazol-5-yl)-6-(4-methylpiperazin-1-yl)imidazo[1,2-b]pyridazine]
inhibition at 50 µM [1]: 13%

IC50 (HuR; [2]): > 50 µM
Compound: CC(=O)c1n[nH]c2ccc(-c3cnc4ccc(N(C)C5CCOCC5)nn34)cc12 [Compound 54, 1-(5-(6-(Methyl(tetrahydro-2H-pyran-4-yl)amino)imidazo[1,2-b]pyridazin-3-yl)-1H-indazol-3-yl)ethan-1-one]

HuR N/C Imax % Inh (HuR; Concn 50 uM): 90%
IC50 (HuR; [3]): 1.2 µM
IC50 (HuR; [2]): 1.2 µM
Compound: CN(c1ccc2ncc(-c3cnc4[nH]ncc4c3)n2n1)C1CCOCC1 [Compound 55, N-Methyl-3-(1H-pyrazolo[3,4-b]pyridin-5-yl)-N-(tetrahydro-2H-pyran-4-yl)imidazo[1,2-b]pyridazin-6-amine]
inhibition at 50 µM [1]: 10%

Compound: CCCN(C)c1ccc2ncc(-c3cnc4[nH]ncc4c3)n2n1 [Compound 56, N-Methyl-N-propyl-3-(1H-pyrazolo[3,4-b]pyridin-5-yl)imidazo[1,2-b]pyridazin-6-amine]
inhibition at 50 µM [1]: 5%

HuR N/C Imax % Inh (HuR; Concn 50 uM): 89%
IC50 (HuR; [2]): 2 µM
Compound: c1cc2[nH]ncc2cc1-c1cnc2ccc(OC3CCOCC3)nn12 [Compound 57, 3-(1H-Indazol-5-yl)-6-((tetrahydro-2H-pyran-4-yl)oxy)imidazo[1,2-b]pyridazine]
inhibition at 50 µM [1]: 12%
